Measured values reported in patent US4535081A, “Antiallergic and antiulcer 1-oxo-1H-thiazolo[3,2-a]pyrimidine-2-carboxamides and intermediates therefor” (Pfizer Inc., priority 1983, dated 1985).
Entries after “also recorded” stand apart in the source; their conditions may differ.

What was measured:
serum enzyme levels = test: Serum enzyme levels, intravenous five days, dogs; type: in vivo, dog; conditions: five days, 1, 3, 10, 3 and 3 mg/kg
[1] = system: urinary volume output and sodium and potassium excretion; test: Diuretic activity; type: in vivo; conditions: oral
Experimental: When given orally, it caused a dose-related increase in urinary volume output at doses in the range 0.3 to 5 mg/kg. […] These findings indicate that the dose-response range for diuretic activity is considerably higher than that for antiulcer effects and just below that for antiallergy effects (1 to 10 mg/kg).

[2] = Oral absorption and plasma concentrations, rats; type: in vivo, rat
Experimental: (§1) This is supported by the observations of plasma concentrations of 3 to 7 μg/ml one hour after oral administration of III, 50 to 300 mg/kg.

rats = test: Oral toleration, 10 days, rats; type: in vivo, rat; conditions: 10 days, 50, 150 and 300 mg/kg/day
Experimental: Rats were given III orally by gavage at doses of 50, 150 and 300 mg/kg/day for 10 days.

bone marrow = test: Bone marrow chromosomal damage, mice; type: in vivo, mouse; conditions: single oral 40 mg/kg; 6, 12 or 24 hours
Experimental: Single oral doses of III, 40 mg/kg, were administered to groups of mice who were sacrificed 6, 12 or 24 hours later. […] From these findings, it is evident that III has no obvious mutagenic potential.

[3] = system: plasma histamine rise in rats passively sensitized with IgE-rich antiserum; test: Passive systemic anaphylaxis, plasma histamine rise; type: in vivo, rat
[4] = Cardiovascular effects in anesthetized dogs; type: in vivo, dog; conditions: dog, in vivo; cumulative intravenous doses; read-out: ratio of cardiovascular-effect dose to maximally effective intravenous antiallergy dose
[5] = system: blood pressure, heart rate and pressor responses; test: Cardiovascular effects in anesthetized dogs; type: in vivo, dog; conditions: cumulative 5 and 15 mg/kg, i.v.
human lymphocytes = test: Chromosomal breakage in human lymphocytes in vitro; type: cell-based; conditions: 1000, 100, 10 or 0 μg/ml
[6] = system: isolated guinea pig ileum (acetylcholine); test: Isolated ileum spasm, acetylcholine; conditions: 10^-8 to 10^-4 M
[7] = Oral absorption and plasma concentrations, dogs; type: in vivo, dog
Experimental: as §1

glucose tolerance = test: Glucose tolerance in rats; type: in vivo, rat; conditions: 10, 30, or 100 mg/kg p.o. with glucose 1 g/kg p.o.
Excerpt: This effect may be due to a delayed absorption of glucose related to a possible effect on gastric emptying.

point mutations = test: Ames test in vitro; type: cell-based
Stability = type: physicochemical; conditions: solid state, with standard diluents / inert ingredients, or in solution
[8] = system: passive cutaneous anaphylaxis (PCA); test: Intravenous activity in PCA test; type: in vivo, rat
Experimental: In the PCA test, normal animals are injected intradermally (i.d.) with antibodies contained in serum obtained from actively sensitized animals. The animals are then challenged intravenously with antigen mixed with a dye such as Evans' Blue. The increased capillary permeability caused by the antigen-antibody reaction causes the dye to leak from the site of the antibody injection. The test animals are then asphyxiated and the intensity of the reaction determined by measuring the diameter and intensity of the blue coloration on the inner surface of the animals' skin.
The ability of agents to interfere with PCA reactions is measured in male Charles River Wistar rats, 170-210 g. Reaginic antiserum, rich in IgE antibodies, is prepared according to Petillo et al., Int. Arch. […] Hyperimmune antiserum rich in IgG antibodies to hen egg albumin is prepared according to Orange et al., J. Exptl. […] Forty-eight hours prior to antigen challenge, the reaginic antiserum is injected intradermally (i.d.) into the shaved skin of a normal rat's back; 5 hours before challenge the hyperimmune antisera is similarly injected. […] The difference is expressed as percent blockage due to the compound employed.

[9] = one hour after oral 50 to 300 mg/kg, 60 min

With `O=C(Nc1nnn[nH]1)c1cnc2sc3c(n2c1=O)CCCC3` [Compound III, N-(5-Tetrazolyl)-1-oxo-1H-cyclohexenothiazolo[3,2-a]pyrimidine-2-carboxamide] the serum enzyme levels (serum enzyme levels) was “remained normal”, the “dose range of dose-related increase in urinary volume output” value [1] was 0.3 to 5 mg/kg and the “maximum increase in urinary volume output” value ([1]; 0.3 to 5 mg/kg) was “twofold increase in volume output”. The “sodium and potassium excretion” value ([1]; 0.3 to 5 mg/kg) was “an increase in sodium and potassium excretion was observed”, the “urinary concentrations of sodium and potassium ions” value ([1]; 0.3 to 5 mg/kg) was “unchanged” and the plasma concentration [2, 9] was 3000 to 7000 ng/mL. For the same compound, the oral absorption ([2]; ratio of comparably effective oral and intravenous doses, PCA test) was “good oral absorption”, the “pathological changes, gross and microscopic (liver, kidney, heart, lung)” value (rats; oral gavage) was “no resultant pathological changes” and the “clinical chemistry apart from serum glutamic-pyruvic transaminase” value (rats; oral) was “no changes in clinical chemistry were observed”. For the same compound, the “chromosomal damage in bone marrow, single dose” value (bone marrow) was “did not reveal any chromosomal damage”, the “potency relative to Intal, passive systemic anaphylaxis” value ([3]; i.v., vs Intal) was 13 times and the “passive systemic anaphylaxis” value ([3]; rat, in vivo) was “prevented”. For the same compound, the selectivity ratio [4] was 5 to 15, the blood pressure [5] was “transient hypotension” and the heart rate [5] was “variable changes in heart rate”. For the same compound, the “pressor responses to epinephrine and bilateral carotid occlusion” value [5] was “diminished slightly”, the “drug-induced chromosomal breakage, human lymphocytes” value (human lymphocytes) was “failed to reveal any significant drug-induced chromosomal breakage” and the “antagonism of spasm of isolated guinea pig ileum” value [6] was “does not antagonize spasms”. For the same compound, the plasma concentration [7, 9] was 9000 to 26000 ng/mL, the oral absorption ([7]; suspensions or capsules) was “absorbed readily after oral administration” and the glucose tolerance (glucose tolerance) was “apparent dose-dependent improvement in glucose tolerance”. The “point mutations in Ames test” value (point mutations) was “did not induce point mutations”, the stability (Stability) was “highly stable in a pure solid state, as well as in the presence of standard pharmaceutical diluents and in solution; also recorded: exceptionally good stability” and the “intravenous activity range in the PCA test” value [8] was 0.03 to 1.0 mg/kg. For the same compound, the “potency relative to Intal in the PCA test” value ([8]; vs Intal) was roughly 26 times.
